Details: Liquid, Vibrating tube method

CCCCCCCCCC [decane]
Details	mass density [kg/m3]
333.16 K, 13554 kPa	711.7
333.16 K, 13566 kPa	711.8
333.16 K, 13581 kPa	711.8
333.16 K, 13900 kPa	711.9
333.16 K, 14258 kPa	712.3
333.16 K, 14275 kPa	712.3
333.16 K, 14293 kPa	712.4
333.16 K, 14310 kPa	712.3
333.16 K, 14334 kPa	712.3
333.16 K, 14348 kPa	712.4
333.16 K, 14369 kPa	712.4
333.16 K, 14389 kPa	712.4
333.16 K, 14403 kPa	712.4
333.16 K, 14421 kPa	712.5
333.16 K, 14436 kPa	712.4
333.16 K, 14457 kPa	712.6
333.16 K, 14470 kPa	712.5
333.16 K, 14484 kPa	712.6
333.16 K, 14501 kPa	712.6
333.16 K, 14514 kPa	712.5
333.16 K, 14528 kPa	712.6
333.16 K, 14543 kPa	712.4
333.16 K, 14559 kPa	712.6
333.16 K, 14581 kPa	712.6
333.16 K, 14601 kPa	712.6
333.16 K, 14623 kPa	712.6
333.16 K, 14640 kPa	712.6
333.16 K, 14660 kPa	712.7
333.16 K, 14678 kPa	712.6
333.16 K, 14696 kPa	712.7
333.16 K, 14711 kPa	712.7
333.16 K, 14728 kPa	712.8
333.16 K, 14750 kPa	712.8
333.16 K, 14770 kPa	712.8
333.16 K, 14785 kPa	712.7
333.16 K, 14808 kPa	712.8
333.16 K, 14828 kPa	712.8
333.16 K, 14846 kPa	712.8
333.16 K, 14864 kPa	712.9
333.16 K, 14881 kPa	712.7
333.16 K, 14984 kPa	712.9
333.16 K, 15187 kPa	713
333.16 K, 15232 kPa	713.1
333.16 K, 15248 kPa	713.1
333.16 K, 15291 kPa	713.1
333.16 K, 15313 kPa	713.2
333.16 K, 15331 kPa	713.3
333.16 K, 15356 kPa	713.2
333.16 K, 15370 kPa	713.2
333.16 K, 15519 kPa	713.4
333.16 K, 15581 kPa	713.3
333.16 K, 18702 kPa	716
333.16 K, 18825 kPa	715.9
333.16 K, 21785 kPa	718.5
333.16 K, 21820 kPa	718.6
333.16 K, 25349 kPa	721.2
333.16 K, 25383 kPa	721.2
333.16 K, 25434 kPa	721.3
333.16 K, 25480 kPa	721.3
333.16 K, 25520 kPa	721.3
333.16 K, 25560 kPa	721.3
333.16 K, 25612 kPa	721.4
333.16 K, 25653 kPa	721.5
333.16 K, 26114 kPa	721.7
333.16 K, 26176 kPa	721.8
333.16 K, 26222 kPa	721.8
333.16 K, 26260 kPa	721.9
333.16 K, 26304 kPa	721.8
333.16 K, 26342 kPa	721.9
333.16 K, 27466 kPa	722.8
333.16 K, 27509 kPa	722.8
333.16 K, 27558 kPa	722.8
333.16 K, 27603 kPa	722.9
333.16 K, 27660 kPa	722.9
333.16 K, 27703 kPa	722.9
333.16 K, 27755 kPa	722.9
333.16 K, 27812 kPa	723
333.16 K, 27849 kPa	723.1
333.16 K, 27894 kPa	723.1
333.16 K, 27945 kPa	723
333.16 K, 27985 kPa	723.2
333.16 K, 28031 kPa	723.2
333.16 K, 28077 kPa	723.1
333.16 K, 28117 kPa	723.2
333.16 K, 28185 kPa	723.3
333.16 K, 28218 kPa	723.2
333.16 K, 28262 kPa	723.3
333.16 K, 28293 kPa	723.4
333.16 K, 28324 kPa	723.5
333.16 K, 28354 kPa	723.3
333.16 K, 28395 kPa	723.5
333.16 K, 28436 kPa	723.4
333.16 K, 28472 kPa	723.5
333.16 K, 28508 kPa	723.5
333.16 K, 28555 kPa	723.6
333.16 K, 28586 kPa	723.5
333.16 K, 29016 kPa	723.9
333.16 K, 29059 kPa	724
333.16 K, 29107 kPa	724
333.16 K, 29157 kPa	724.1
333.16 K, 29189 kPa	724
333.16 K, 29233 kPa	724
333.16 K, 29260 kPa	724.2
333.16 K, 29300 kPa	724.2
333.16 K, 29339 kPa	724.2
333.16 K, 29378 kPa	724.2
333.16 K, 29411 kPa	724.2
333.16 K, 29456 kPa	724.2
333.16 K, 29495 kPa	724.1
333.16 K, 29541 kPa	724.3
333.16 K, 29575 kPa	724.4
333.16 K, 29625 kPa	724.4
333.16 K, 29666 kPa	724.3
333.16 K, 29700 kPa	724.3
333.16 K, 29730 kPa	724.6
333.16 K, 29759 kPa	724.5
333.16 K, 29794 kPa	724.6
333.17 K, 25689 kPa	721.5
333.17 K, 25730 kPa	721.5
333.17 K, 25766 kPa	721.6
333.17 K, 25801 kPa	721.5
333.17 K, 25849 kPa	721.7
333.17 K, 25908 kPa	721.7
333.17 K, 25950 kPa	721.7
333.17 K, 25992 kPa	721.7
333.17 K, 26034 kPa	721.7
333.17 K, 26071 kPa	721.8
333.17 K, 28623 kPa	723.6
333.17 K, 28670 kPa	723.7
333.17 K, 28702 kPa	723.6
333.17 K, 28729 kPa	723.8
333.17 K, 28761 kPa	723.8
333.17 K, 28807 kPa	723.7
333.17 K, 28849 kPa	723.8
333.17 K, 28887 kPa	723.7
333.17 K, 28930 kPa	724
333.17 K, 28974 kPa	723.9

Reference: the NIST ThermoML archive (doi:10.1021/je800110r)
